For 24 compounds, inhibition results are on record in patent publication EP0677039B1, “CYCLOBUTANE DERIVATIVES AS INHIBITORS OF […] SYNTHETASE AND PROTEIN […]” (Abbott Laboratories, priority 1993, dated 1995).

Molecules are shown by their SMILES.

For the first assay, the target named is T1, Rat liver microsomal squalene synthetase (Rattus norvegicus, UniProt Q02769).
T1 construct: Rat liver microsome, the source of enzyme; from tissue; host or cells: rat liver microsomes
T1 sequence (Q02769 1-416): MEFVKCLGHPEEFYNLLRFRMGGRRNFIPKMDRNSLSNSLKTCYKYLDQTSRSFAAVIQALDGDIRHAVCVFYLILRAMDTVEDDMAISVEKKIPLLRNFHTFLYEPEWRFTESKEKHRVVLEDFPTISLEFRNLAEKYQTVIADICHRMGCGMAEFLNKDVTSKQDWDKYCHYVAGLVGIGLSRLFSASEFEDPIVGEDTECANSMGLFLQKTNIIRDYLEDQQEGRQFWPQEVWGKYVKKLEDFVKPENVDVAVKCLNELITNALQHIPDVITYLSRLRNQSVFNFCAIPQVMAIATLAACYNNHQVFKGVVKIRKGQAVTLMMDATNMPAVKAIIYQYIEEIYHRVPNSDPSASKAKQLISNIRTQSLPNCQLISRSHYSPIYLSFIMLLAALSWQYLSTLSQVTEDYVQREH
The assay is described as follows: In vitro inhibition of squalene synthetase. The settings on record: 10 µM test compound; rat liver microsomes, labelled farnesyl pyrophosphate, 10 minutes at 37 °C; compared to controls with no test compound. The format is biochemical. The protocol:
In vitro inhibition of squalene synthetase may be measured by the following procedure. Rat liver microsomal squalene synthetase activity was measured using farnesyl pyrophosphate as a substrate and quantitating squalene synthesis using labelled farnesyl pyrophosphate and counting the squalene formed. Rat liver microsome, the source of enzyme, was prepared according to the method of Gillies, P. J., et al., Exp. Molc. Pathol. 44: 329-339 (1986), a modification of the procedure of Erickson, S. K., and Cooper, A. D., Metabolism, 29: 991-996 (1980). […] Oxygen was excluded from the closed incubation tube by degassing with nitrogen. The reaction was terminated by the addition of ethanolic KOH and after degassing with N2, the microsomal membranes were solubilized by heating at 60 °C for 30 minutes. The squalene was extracted into hexane, and the squalene was separated from all other radioactive molecules by passage over an activated alumina column. […] The per cent inhibition at a dose of 10 µM (or 1 µM) compared to controls with no test compound was determined. […]
The compound `C[C@@H](c1ccccc1)N(Cc1ccc(Oc2ccccc2)cc1)C(=O)[C@H]1[C@@H](C(=O)O)[C@H](C(=O)O)[C@@H]1C(=O)N(Cc1ccc(Oc2ccccc2)cc1)[C@@H](C)c1ccccc1` [Example 34] returned an inhibition at 10 µM of 89%.

Take `O=C(O)[C@H]1[C@H](C(=O)O)[C@H](C(=O)N(CC=CC=Cc2ccccc2)Cc2ccccc2)[C@H]1C(=O)N(CC=CC=Cc1ccccc1)Cc1ccccc1` [Example 36, (1α,2β,3β,4α)-1,2-Di[N-benzyl-N-(5-phenyl-2,4-pentadienyl)aminocarbonyl]cyclobutane-3,4-dicarboxylic acid]: 10 µM produced 63% inhibition.

The compound `CCCN(CCc1ccc(Oc2ccccc2)cc1)C(=O)[C@H]1[C@@H](C(=O)O)[C@H](C(=O)O)[C@@H]1C(=O)N(CCC)CCc1ccc(Oc2ccccc2)cc1` [Example 38H, (1α,2β,3β,4α)-1,2-Di[N-propyl-N-(2-(4-phenoxyphenyl)ethyl)aminocarbonyl]cyclobutane-3,4-dicarboxylic acid] displayed an inhibition at 10 µM of 51%.

As to `CCCN(C(=O)C1C(C(=O)O)C(C(=O)O)C1C(=O)N(CCC)c1ccc(Oc2ccccc2)cc1)c1ccc(Oc2ccccc2)cc1` (stereo not drawn) [Example 39C, (1α,2β,3β,4α)-1,2-Di[N-propyl-N-(4-phenoxyphenyl)aminocarbonyl]cyclobutane-3,4-dicarboxylic acid], testing at 10 µM gave an inhibition of 59%.

Compound `COCCN(Cc1ccc(Oc2ccccc2)cc1)C(=O)C1C(C(=O)O)C(C(=O)O)C1C(=O)N(CCOC)Cc1ccc(Oc2ccccc2)cc1` (stereo not drawn) [Example 40B, (1α,2β,3β,4α)-1,2-Di[N-(2-methoxyethyl)-N-(4-phenoxybenzyl)aminocarbonyl]cyclobutane-3,4-dicarboxylic acid] had an inhibition at 10 µM of 82%.

`O=C(O)C1C(C(=O)O)C(C(=O)N(Cc2ccc(Oc3ccccc3)cc2)CC2CC2)C1C(=O)N(Cc1ccc(Oc2ccccc2)cc1)CC1CC1` (stereo not drawn) [Example 47B, (1α,2β,3β,4α)-1,2-Di[N-(cyclopropylmethyl)-N-(4-phenoxybenzyl)aminocarbonyl]cyclobutane-3,4-dicarboxylic acid] registered an inhibition at 10 µM of 87%.

For the compound `COc1cccc(CCN(Cc2ccc(Oc3ccccc3)cc2)C(=O)C2C(C(=O)O)C(C(=O)O)C2C(=O)N(CCc2cccc(OC)c2)Cc2ccc(Oc3ccccc3)cc2)c1` (stereo not drawn) [Example 54B, (1α,2β,3β,4α)-1,2-Di[N-(4-phenoxybenzyl)-N-(3-methoxyphenethyl)aminocarbonyl]cyclobutane-3,4-dicarboxylic acid], the inhibition at 10 µM was 74%.

The compound `COc1ccc(CCN(Cc2ccc(Oc3ccccc3)cc2)C(=O)C2C(C(=O)O)C(C(=O)O)C2C(=O)N(CCc2ccc(OC)c(OC)c2)Cc2ccc(Oc3ccccc3)cc2)cc1OC` (stereo not drawn) [Example 55, (1α,2β,3β,4α)-1,2-Di[N-(4-phenoxybenzyl)-N-(3,4-dimethoxyphenethyl)aminocarbonyl]cyclobutane-3,4-dicarboxylic acid] showed an inhibition at 10 µM of 78%.

Compound `O=C(O)[C@H]1[C@H](C(=O)O)[C@H](C(=O)N(CCc2ccccc2)Cc2ccc(Oc3ccccc3)cc2)[C@H]1C(=O)N(CCc1ccccc1)Cc1ccc(Oc2ccccc2)cc1` [Example 56, (1α,2β,3β,4α)-1,2-Di[N-(4-phenoxybenzyl)-N-phenethylaminocarbonyl] cyclobutane-3,4-dicarboxylic acid] displayed an inhibition at 10 µM of 86%.

`O=C(O)[C@H]1[C@H](C(=O)O)[C@H](C(=O)N(CCCc2ccccc2)Cc2ccc(Oc3ccccc3)cc2)[C@H]1C(=O)N(CCCc1ccccc1)Cc1ccc(Oc2ccccc2)cc1` [Example 57, (1α,2β,3β,4α)-1,2-Di[N-(4-phenoxybenzyl)-N-(3-phenyl-1-propyl)aminocarbonyl]cyclobutane-3,4-dicarboxylic acid] had an inhibition at 10 µM of 64%.

On to `O=C(O)[C@H]1[C@H](C(=O)O)[C@H](C(=O)N(CCCCc2ccccc2)Cc2ccc(Oc3ccccc3)cc2)[C@H]1C(=O)N(CCCCc1ccccc1)Cc1ccc(Oc2ccccc2)cc1` [Example 58, (1α,2β,3β,4α)-1,2-Di[N-(4-phenoxybenzyl)-N-(4-phenyl-1-butyl)aminocarbonyl]cyclobutane-3,4-dicarboxylic acid], for which testing at 10 µM gave an inhibition of 63%.

`COC(=O)CN(Cc1ccc(Oc2ccccc2)cc1)C(=O)[C@H]1[C@@H](C(=O)O)[C@H](C(=O)O)[C@@H]1C(=O)N(CC(=O)OC)Cc1ccc(Oc2ccccc2)cc1` [Example 59, (1α,2β,3β,4α)-1,2-Di[N-(4-phenoxybenzyl)-N-(methoxycarbonylmethyl)aminocarbonyl]cyclobutane-3,4-dicarboxylic acid]: the inhibition at 10 µM was determined as 50%.

`CCCN(Cc1ccc(OC2CCCCC2)cc1)C(=O)[C@H]1[C@@H](C(=O)O)[C@H](C(=O)O)[C@@H]1C(=O)N(CCC)Cc1ccc(OC2CCCCC2)cc1` [Example 61B, (1α,2β,3β,4α)-1,2-Di[N-propyl-N-(4-cyclohexyloxybenzyl)aminocarbonyl]cyclobutane-3,4-dicarboxylic acid] registered an inhibition at 10 µM of 43%.

`CCCN(Cc1ccc(Oc2ccccc2)cc1)C(=O)[C@H]1[C@@H](C(=O)O)[C@H](C(=O)O)[C@@H]1C(=O)N(C)CC/C=C(\C)CCC=C(C)C` [Example 62B, (1α,2β,3β,4α)-1-[N-Propyl-N-(4-phenoxybenzyl)aminocarbonyl]-2-[N-methyl-N-(homogeranyl)aminocarbonyl]cyclobutane-3,4-dicarboxylic acid] yielded an inhibition at 10 µM of 83%.

The assay is the same for the next values; noted with them: values marked * in Table 1: 1 µM test compound; rat liver microsomes, labelled farnesyl pyrophosphate, 10 minutes at 37 °C.
Turning to `O=C(O)[C@H]1[C@H](C(=O)O)[C@H](C(=O)N(Cc2ccc(Oc3ccccc3)cc2)CC2CCCCC2)[C@H]1C(=O)N(Cc1ccc(Oc2ccccc2)cc1)CC1CCCCC1` [Example 31], the inhibition at 1 µM turned out to be 37%.

`C[C@H](c1ccccc1)N(Cc1ccc(Oc2ccccc2)cc1)C(=O)[C@H]1[C@@H](C(=O)O)[C@H](C(=O)O)[C@@H]1C(=O)N(Cc1ccc(Oc2ccccc2)cc1)[C@H](C)c1ccccc1` [Example 35] returned an inhibition at 1 µM of 59%.

`CSCCN(Cc1ccc(Oc2ccccc2)cc1)C(=O)C1C(C(=O)O)C(C(=O)O)C1C(=O)N(CCSC)Cc1ccc(Oc2ccccc2)cc1` (stereo not drawn) [Example 41B, (1α,2β,3β,4α)-1,2-Di[N-(2-methylthioethyl)-N-(4-phenoxybenzyl)aminocarbonyl]cyclobutane-3,4-dicarboxylic acid] came in with an inhibition at 1 µM of 72%.

On to `CCSCCN(Cc1ccc(Oc2ccccc2)cc1)C(=O)C1C(C(=O)O)C(C(=O)O)C1C(=O)N(CCSCC)Cc1ccc(Oc2ccccc2)cc1` (stereo not drawn) [Example 42, (1α,2β,3β,4α)-1,2-Di[N-(2-ethylthioethyl)-N-(4-phenoxybenzyl)aminocarbonyl]cyclobutane-3,4-dicarboxylic acid], for which at 1 µM the inhibition was 81%.

Consider `O=C(O)C1C(C(=O)O)C(C(=O)N(CCF)Cc2ccc(Oc3ccccc3)cc2)C1C(=O)N(CCF)Cc1ccc(Oc2ccccc2)cc1` (stereo not drawn) [Example 43, (1α,2β,3β,4α)-1,2-Di[N-(2-fluoroethyl)-N-(4-phenoxybenzyl)aminocarbonyl]cyclobutane-3,4-dicarboxylic acid], for which the inhibition at 1 µM is 47%.

With `O=C(O)C1C(C(=O)O)C(C(=O)N(Cc2ccc(Oc3ccccc3)cc2)Cc2ccco2)C1C(=O)N(Cc1ccc(Oc2ccccc2)cc1)Cc1ccco1` (stereo not drawn) [Example 44, (1α,2β,3β,4α)-1,2-Di[N-(furan-2-ylmethyl)-N-(4-phenoxybenzyl)aminocarbonyl)cyclobutane-3,4-dicarboxylic acid], testing at 1 µM gave an inhibition of 56%.

In turn, `O=C(O)C1C(C(=O)O)C(C(=O)N(Cc2ccc(Oc3ccccc3)cc2)Cc2cccs2)C1C(=O)N(Cc1ccc(Oc2ccccc2)cc1)Cc1cccs1` (stereo not drawn) [Example 45, (1α,2β,3β,4α)-1,2-Di[N-(thien-2-ylmethyl)-N-(4-phenoxybenzyl)aminocarbonyl]cyclobutane-3,4-dicarboxylic acid] yielded an inhibition at 1 µM of 50%.

Turning to `O=C(O)C1C(C(=O)O)C(C(=O)N(Cc2ccc(Oc3ccccc3)cc2)C2CCC2)C1C(=O)N(Cc1ccc(Oc2ccccc2)cc1)C1CCC1` (stereo not drawn) [Example 48, (1α,2β,3β,4α)-1,2-Di[N-cyclobutyl-N-(4-phenoxybenzyl)aminocarbonyl]cyclobutane-3,4-dicarboxylic acid], the inhibition at 1 µM was 79%.

`O=C(O)C1C(C(=O)O)C(C(=O)N(Cc2ccc(F)cc2)Cc2ccc(Oc3ccccc3)cc2)C1C(=O)N(Cc1ccc(F)cc1)Cc1ccc(Oc2ccccc2)cc1` (stereo not drawn) [Example 53B, (1α,2β,3β,4α)-1,2-Di[N-(4-fluorobenzyl)-N-(4-phenoxybenzyl)aminocarbonyl]cyclobutane-3.4-dicarboxylic acid] displayed an inhibition at 1 µM of 63%.

For the compound `CCOC(=O)CCN(Cc1ccc(Oc2ccccc2)cc1)C(=O)[C@H]1[C@@H](C(=O)O)[C@H](C(=O)O)[C@@H]1C(=O)N(CCC(=O)OCC)Cc1ccc(Oc2ccccc2)cc1` [Example 60, (1α,2β,3β,4α)-1,2-Di[N-(4-phenoxybenzyl)-N-(ethoxycarbonylethyl)aminocarbonyl]cyclobutane-3,4-dicarboxylic acid], the inhibition at 1 µM worked out at 65%.

What is called inhibition is the share of the control response that was lost under treatment. High values mean strong suppression, low ones little suppression.
